# Legend:
# [1] = molecular target: Fibroblast growth factor receptor 1 (Homo sapiens) (UniProt P11362); test: Inhibition of human FGFR1 (400 to 820 residues) assessed as remaining enzyme activity at 50 uM after 30 mins by 33P-ATP filter-binding assay
# HL-60 = test: Induction of apoptosis in human HL60 cells assessed as apoptotic cells at 1 uM (reference value: 1 %); assay type: functional
# LNCaP = test: Cytotoxicity against human LNCAP cells assessed as cell growth inhibition after 48 hrs by MTT assay; assay type: functional
# [2] = molecular target: MAP kinase-activated protein kinase 2 (Homo sapiens) (UniProt P49137); test: Inhibition of human MAPKAPK2 assessed as remaining enzyme activity at 50 uM after 30 mins by 33P-ATP filter-binding assay
# [3] = molecular target: Testis-specific serine/threonine-protein kinase 1 (Homo sapiens) (UniProt Q9BXA7); test: Inhibition of human TSSK1 (1 to 367 residues) assessed as remaining enzyme activity at 50 uM after 30 mins by 33P-ATP filter-binding assay
# Testis-specific serine/threonine-protein kinase 1 (Homo sapiens), sequence (Q9BXA7 whole entry, the tested form may be a part): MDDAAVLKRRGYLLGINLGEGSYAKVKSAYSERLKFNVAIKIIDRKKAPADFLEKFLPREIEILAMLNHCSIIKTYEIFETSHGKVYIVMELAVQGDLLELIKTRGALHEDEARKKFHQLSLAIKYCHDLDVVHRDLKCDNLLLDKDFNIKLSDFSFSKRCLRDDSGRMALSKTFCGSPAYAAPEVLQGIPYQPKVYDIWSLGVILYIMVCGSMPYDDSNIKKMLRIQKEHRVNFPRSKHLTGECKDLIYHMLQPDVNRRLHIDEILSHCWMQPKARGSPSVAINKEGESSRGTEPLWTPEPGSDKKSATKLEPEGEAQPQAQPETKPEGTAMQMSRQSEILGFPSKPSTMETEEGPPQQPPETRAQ
# [4] = molecular target: Serine/threonine-protein kinase BRSK2 (Homo sapiens) (UniProt Q8IWQ3); test: Inhibition of human BRSK2 (2 to 674residues) assessed as remaining enzyme activity at 50 uM after 30 mins by 33P-ATP filter-binding assay
# [5] = molecular target: Dual specificity testis-specific protein kinase 1 (Homo sapiens) (UniProt Q15569); test: Inhibition of human TESK1 (1 to 345 residues) assessed as remaining enzyme activity at 50 uM after 30 mins by 33P-ATP filter-binding assay
# [6] = Stability in SGF solution at 120 ug/ml after 8 hrs by RP-HPLC analysis; assay type: physicochemical; conditions: simulated gi fluid
# [7] = molecular target: Serine/threonine-protein kinase MARK1 (Homo sapiens) (UniProt Q9P0L2); test: Inhibition of human MARK1 (2 to 795 residues) assessed as remaining enzyme activity at 50 uM after 30 mins by 33P-ATP filter-binding assay
# U-251 = test: Cytotoxicity against human U251 cells assessed as cell growth inhibition after 48 hrs by MTT assay; assay type: functional; conditions: U-251, 48 h
# [8] = Cell cycle arrest in human HL60 cells assessed as accumulation at G2 phase at 1 uM (reference value: 5 %); assay type: functional, cell-based; conditions: HL-60
# [9] = Cytotoxicity against human MIAPaCa2 cells assessed as cell growth inhibition after 48 hrs by MTT assay; assay type: functional; conditions: MIA PaCa-2, 48 h
# [10] = molecular target: RAC-beta serine/threonine-protein kinase (Homo sapiens) (UniProt P31751); test: Inhibition of human PKBbeta assessed as remaining enzyme activity at 50 uM after 30 mins by 33P-ATP filter-binding assay
# [11] = molecular target: Ephrin type-A receptor 4 (Homo sapiens) (UniProt P54764); test: Inhibition of human EPHA4 (580 to 986 residues) assessed as remaining enzyme activity at 50 uM after 30 mins by 33P-ATP filter-binding assay
# Ephrin type-A receptor 4 (Homo sapiens), sequence (P54764 whole entry, the tested form may be a part): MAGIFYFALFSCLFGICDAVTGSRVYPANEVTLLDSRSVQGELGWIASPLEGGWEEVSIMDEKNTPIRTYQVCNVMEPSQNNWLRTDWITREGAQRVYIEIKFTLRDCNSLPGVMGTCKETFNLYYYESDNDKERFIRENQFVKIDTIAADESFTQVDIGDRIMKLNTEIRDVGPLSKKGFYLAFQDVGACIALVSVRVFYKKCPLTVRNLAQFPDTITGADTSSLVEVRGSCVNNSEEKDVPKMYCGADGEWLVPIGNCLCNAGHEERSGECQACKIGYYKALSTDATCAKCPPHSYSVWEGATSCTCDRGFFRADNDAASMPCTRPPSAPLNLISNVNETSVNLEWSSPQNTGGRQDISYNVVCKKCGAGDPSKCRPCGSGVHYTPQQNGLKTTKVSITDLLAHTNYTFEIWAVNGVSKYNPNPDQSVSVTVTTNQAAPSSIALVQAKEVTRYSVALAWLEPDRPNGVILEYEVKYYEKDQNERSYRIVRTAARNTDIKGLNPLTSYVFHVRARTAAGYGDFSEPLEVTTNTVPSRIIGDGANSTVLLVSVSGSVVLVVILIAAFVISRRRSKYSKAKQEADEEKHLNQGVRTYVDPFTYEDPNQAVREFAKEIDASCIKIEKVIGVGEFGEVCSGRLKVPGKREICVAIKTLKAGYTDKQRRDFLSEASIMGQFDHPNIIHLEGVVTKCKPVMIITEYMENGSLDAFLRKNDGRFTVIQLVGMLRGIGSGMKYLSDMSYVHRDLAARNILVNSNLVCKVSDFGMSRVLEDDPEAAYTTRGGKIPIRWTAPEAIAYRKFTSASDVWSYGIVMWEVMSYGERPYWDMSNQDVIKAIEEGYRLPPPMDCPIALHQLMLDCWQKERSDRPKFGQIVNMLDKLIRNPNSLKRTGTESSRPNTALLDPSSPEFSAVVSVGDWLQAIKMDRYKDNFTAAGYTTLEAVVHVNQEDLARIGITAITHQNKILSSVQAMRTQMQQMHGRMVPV
# [12] = molecular target: Dual specificity protein kinase CLK2 (Homo sapiens) (UniProt P49760); test: Inhibition of human CLK2 (138 to 499 residues) assessed as remaining enzyme activity at 50 uM after 30 mins by 33P-ATP filter-binding assay
# Dual specificity protein kinase CLK2 (Homo sapiens), sequence (P49760 whole entry, looked up, the tested form may be a part): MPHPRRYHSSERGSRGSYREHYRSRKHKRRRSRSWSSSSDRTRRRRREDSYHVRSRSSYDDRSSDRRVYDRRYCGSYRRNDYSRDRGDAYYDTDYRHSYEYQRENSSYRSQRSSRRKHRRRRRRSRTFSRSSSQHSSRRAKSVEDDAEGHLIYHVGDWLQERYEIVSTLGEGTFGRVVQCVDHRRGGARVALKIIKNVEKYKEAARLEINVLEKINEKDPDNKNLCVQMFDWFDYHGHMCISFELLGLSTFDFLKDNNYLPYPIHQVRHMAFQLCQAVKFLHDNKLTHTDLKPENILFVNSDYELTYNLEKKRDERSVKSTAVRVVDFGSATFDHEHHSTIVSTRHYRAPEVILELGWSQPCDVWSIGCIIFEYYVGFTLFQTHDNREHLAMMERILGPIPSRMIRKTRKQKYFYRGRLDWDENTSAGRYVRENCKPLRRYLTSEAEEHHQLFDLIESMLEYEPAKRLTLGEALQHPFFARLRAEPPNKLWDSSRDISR
# [13] = molecular target: Serine/threonine-protein kinase Chk2 (Homo sapiens) (UniProt O96017); test: Inhibition of human CHK2 (5 to 543 residues) assessed as remaining enzyme activity at 50 uM after 30 mins by 33P-ATP filter-binding assay
# Serine/threonine-protein kinase Chk2 (Homo sapiens), sequence (O96017 whole entry, the tested form may be a part): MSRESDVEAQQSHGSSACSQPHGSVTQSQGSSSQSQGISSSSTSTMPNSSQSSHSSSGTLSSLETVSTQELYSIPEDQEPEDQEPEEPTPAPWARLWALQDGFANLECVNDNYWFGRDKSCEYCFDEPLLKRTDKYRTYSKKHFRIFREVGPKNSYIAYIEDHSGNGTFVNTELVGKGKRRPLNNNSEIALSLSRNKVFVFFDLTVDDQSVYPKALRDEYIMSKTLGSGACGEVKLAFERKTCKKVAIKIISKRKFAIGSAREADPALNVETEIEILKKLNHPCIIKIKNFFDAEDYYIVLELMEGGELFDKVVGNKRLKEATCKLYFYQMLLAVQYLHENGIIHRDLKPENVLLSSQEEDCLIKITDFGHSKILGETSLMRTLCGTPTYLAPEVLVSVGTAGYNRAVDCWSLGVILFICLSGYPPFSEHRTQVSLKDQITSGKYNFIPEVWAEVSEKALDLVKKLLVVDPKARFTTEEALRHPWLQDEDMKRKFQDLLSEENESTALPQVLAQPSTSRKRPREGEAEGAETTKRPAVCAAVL
# [14] = Cytotoxicity against human PANC1 cells assessed as cell growth inhibition after 48 hrs by MTT assay; assay type: functional; conditions: PANC-1, 48 h
# [15] = molecular target: Protein kinase C zeta type (Homo sapiens) (UniProt Q05513); test: Inhibition of human PKCzeta (2 to 592 residues) assessed as remaining enzyme activity at 50 uM after 30 mins by 33P-ATP filter-binding assay
# [16] = Cytotoxicity against human BxPC3 cells assessed as cell growth inhibition after 48 hrs by MTT assay; assay type: functional; conditions: BXPC-3, 48 h
# [17] = molecular target: Serine/threonine-protein kinase WNK1 (Homo sapiens) (UniProt Q9H4A3); test: Inhibition of human WNK1 (1 to 661 residues) assessed as remaining enzyme activity at 50 uM after 30 mins by 33P-ATP filter-binding assay
# [18] = molecular target: Serine/threonine-protein kinase 26 (Homo sapiens) (UniProt Q9P289); test: Inhibition of human MST4 (2 to 416 residues) assessed as remaining enzyme activity at 50 uM after 30 mins by 33P-ATP filter-binding assay
# [19] = molecular target: Proto-oncogene tyrosine-protein kinase Src (Homo sapiens) (UniProt P12931); test: Inhibition of human Src (1 to 536 residues) assessed as remaining enzyme activity at 50 uM after 30 mins by 33P-ATP filter-binding assay
# [20] = Stability in SIF solution assessed as reduction in compound AUC at 120 ug/ml after 8 hrs by RP-HPLC analysis; assay type: physicochemical; conditions: read-out: Drug degradation
# [21] = Stability in pH 4 buffer at 120 ug/ml after 8 hrs by RP-HPLC analysis; assay type: physicochemical; conditions: pH 4, 8 h
# [22] = molecular target: MAP kinase-interacting serine/threonine-protein kinase 1 (Homo sapiens) (UniProt Q9BUB5); test: Inhibition of human MNK1 (2 to 424 residues) assessed as remaining enzyme activity at 50 uM after 30 mins by 33P-ATP filter-binding assay
# MAP kinase-interacting serine/threonine-protein kinase 1 (Homo sapiens), sequence (Q9BUB5 whole entry, looked up, the tested form may be a part): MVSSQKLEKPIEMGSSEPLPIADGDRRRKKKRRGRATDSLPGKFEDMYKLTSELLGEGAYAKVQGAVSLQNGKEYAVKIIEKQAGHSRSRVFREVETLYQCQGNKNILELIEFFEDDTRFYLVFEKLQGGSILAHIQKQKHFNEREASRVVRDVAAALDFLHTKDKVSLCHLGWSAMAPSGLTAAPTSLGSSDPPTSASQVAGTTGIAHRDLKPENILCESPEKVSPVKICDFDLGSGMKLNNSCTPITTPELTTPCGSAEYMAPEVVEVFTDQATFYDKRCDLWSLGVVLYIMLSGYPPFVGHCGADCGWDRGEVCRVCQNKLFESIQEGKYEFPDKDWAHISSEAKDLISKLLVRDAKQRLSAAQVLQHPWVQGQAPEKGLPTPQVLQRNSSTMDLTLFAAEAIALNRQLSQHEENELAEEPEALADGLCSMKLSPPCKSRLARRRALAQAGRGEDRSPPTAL
# [23] = Thermodynamic equilibrium solubility in water at 120 ug/ml by HPLC analysis; assay type: physicochemical; conditions: read-out: Therm_solubility
# [24] = Partition coefficient, logP of the compound in water/PBS buffer at 25 degC by OECD guidelines based method; assay type: physicochemical; conditions: water/PBS buffer; read-out: logP
# [25] = molecular target: Tyrosine-protein kinase BTK (Homo sapiens) (UniProt Q06187); test: Inhibition of human BTK (2 to 659 residues) assessed as remaining enzyme activity at 50 uM after 30 mins by 33P-ATP filter-binding assay
# Tyrosine-protein kinase BTK (Homo sapiens), sequence (Q06187 whole entry, the tested form may be a part): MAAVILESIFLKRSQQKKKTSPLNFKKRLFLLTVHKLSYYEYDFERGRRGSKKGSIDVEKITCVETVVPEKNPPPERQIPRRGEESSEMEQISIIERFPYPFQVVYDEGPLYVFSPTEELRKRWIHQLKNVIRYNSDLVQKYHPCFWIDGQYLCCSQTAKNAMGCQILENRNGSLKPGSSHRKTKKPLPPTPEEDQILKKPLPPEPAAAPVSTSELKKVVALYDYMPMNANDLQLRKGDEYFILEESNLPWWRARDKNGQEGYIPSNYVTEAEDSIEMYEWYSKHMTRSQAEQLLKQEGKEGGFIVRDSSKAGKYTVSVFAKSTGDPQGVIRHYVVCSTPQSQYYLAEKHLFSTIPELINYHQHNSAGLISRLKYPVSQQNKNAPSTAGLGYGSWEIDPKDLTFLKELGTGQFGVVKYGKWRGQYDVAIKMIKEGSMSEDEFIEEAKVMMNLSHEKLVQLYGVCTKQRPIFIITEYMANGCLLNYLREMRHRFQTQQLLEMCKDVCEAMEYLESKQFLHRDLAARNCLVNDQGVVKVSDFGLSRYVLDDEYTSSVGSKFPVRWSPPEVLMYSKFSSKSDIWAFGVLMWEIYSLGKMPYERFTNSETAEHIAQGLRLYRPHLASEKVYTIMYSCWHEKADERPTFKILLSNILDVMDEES
# [26] = molecular target: Serine/threonine-protein kinase OSR1 (Homo sapiens) (UniProt O95747); test: Inhibition of human OSR1 assessed as remaining enzyme activity at 50 uM after 30 mins by 33P-ATP filter-binding assay
# Serine/threonine-protein kinase OSR1 (Homo sapiens), sequence (O95747 2-527 limits assumed): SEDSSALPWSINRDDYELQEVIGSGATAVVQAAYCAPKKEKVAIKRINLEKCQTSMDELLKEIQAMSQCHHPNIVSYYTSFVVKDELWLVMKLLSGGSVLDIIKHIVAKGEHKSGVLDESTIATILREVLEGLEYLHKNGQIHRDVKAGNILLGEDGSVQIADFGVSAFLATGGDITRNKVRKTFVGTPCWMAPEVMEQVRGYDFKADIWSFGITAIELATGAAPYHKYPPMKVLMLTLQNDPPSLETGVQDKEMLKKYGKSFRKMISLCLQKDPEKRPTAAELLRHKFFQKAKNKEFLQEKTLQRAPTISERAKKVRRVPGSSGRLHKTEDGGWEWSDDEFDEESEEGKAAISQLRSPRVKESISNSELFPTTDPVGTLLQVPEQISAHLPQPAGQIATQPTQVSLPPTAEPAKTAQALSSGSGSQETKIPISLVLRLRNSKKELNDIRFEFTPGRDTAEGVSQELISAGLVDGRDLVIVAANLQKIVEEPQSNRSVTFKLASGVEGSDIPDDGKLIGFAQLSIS
# [27] = Stability in pH 7.4 buffer at 120 ug/ml after 8 hrs by RP-HPLC analysis; assay type: physicochemical; conditions: pH 7.4, 8 h
# [28] = molecular target: Mitogen-activated protein kinase 12 (Homo sapiens) (UniProt P53778); test: Inhibition of human p38gamma MAPK (1 to 367 residues) assessed as remaining enzyme activity at 50 uM after 30 mins by 33P-ATP filter-binding assay
# Mitogen-activated protein kinase 12 (Homo sapiens), sequence (P53778 whole entry, the tested form may be a part): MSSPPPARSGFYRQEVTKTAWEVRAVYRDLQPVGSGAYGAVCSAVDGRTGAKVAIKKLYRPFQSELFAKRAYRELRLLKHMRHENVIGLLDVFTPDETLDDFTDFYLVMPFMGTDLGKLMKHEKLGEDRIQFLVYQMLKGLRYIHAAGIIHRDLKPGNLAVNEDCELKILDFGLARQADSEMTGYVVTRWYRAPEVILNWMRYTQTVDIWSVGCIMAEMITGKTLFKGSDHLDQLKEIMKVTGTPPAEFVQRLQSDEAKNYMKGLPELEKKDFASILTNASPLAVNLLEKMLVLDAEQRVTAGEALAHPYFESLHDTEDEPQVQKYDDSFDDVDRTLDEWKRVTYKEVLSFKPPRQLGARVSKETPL
# [29] = Cytotoxicity against human SF539 cells assessed as cell growth inhibition after 48 hrs by MTT assay; assay type: functional; conditions: SF-539, 48 h
# [30] = molecular target: Serine/threonine-protein kinase 3 (Homo sapiens) (UniProt Q13188); test: Inhibition of human MST2 (2 to 491 residues) assessed as remaining enzyme activity at 50 uM after 30 mins by 33P-ATP filter-binding assay
# [31] = molecular target: Dual specificity tyrosine-phosphorylation-regulated kinase 2 (Homo sapiens) (UniProt Q92630); test: Inhibition of human DYRK2 (3 to 528 residues) assessed as remaining enzyme activity at 50 uM after 30 mins by 33P-ATP filter-binding assay
# Dual specificity tyrosine-phosphorylation-regulated kinase 2 (Homo sapiens), sequence (Q92630 whole entry, the tested form may be a part): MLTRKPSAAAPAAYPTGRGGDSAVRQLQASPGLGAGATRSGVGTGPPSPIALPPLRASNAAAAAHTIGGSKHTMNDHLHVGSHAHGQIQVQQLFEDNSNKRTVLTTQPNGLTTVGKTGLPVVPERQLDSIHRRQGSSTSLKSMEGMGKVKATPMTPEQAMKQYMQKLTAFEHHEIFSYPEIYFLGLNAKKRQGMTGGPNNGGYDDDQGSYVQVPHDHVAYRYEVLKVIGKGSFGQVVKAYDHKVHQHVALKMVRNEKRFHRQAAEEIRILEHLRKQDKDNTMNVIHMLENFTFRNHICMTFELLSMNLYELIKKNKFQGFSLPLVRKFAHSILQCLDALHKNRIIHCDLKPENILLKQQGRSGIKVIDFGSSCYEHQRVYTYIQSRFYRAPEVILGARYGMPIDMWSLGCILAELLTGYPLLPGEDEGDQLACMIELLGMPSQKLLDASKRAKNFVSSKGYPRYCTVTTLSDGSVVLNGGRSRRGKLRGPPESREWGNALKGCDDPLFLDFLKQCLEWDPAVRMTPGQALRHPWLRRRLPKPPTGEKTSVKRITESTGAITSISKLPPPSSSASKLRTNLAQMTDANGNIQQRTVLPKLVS
smiles,measurement,setting,value
Cc1cc(=O)c2c(O)cc(O)c([C@H]3CCN(C)C[C@H]3O)c2o1 [ROHITUKINE],Activity,[1],66%
same,Activity,HL-60,1%
same,GI50,LNCaP,30 µM
same,Activity,[2],52%
same,Activity,[3],81%
same,Activity,[4],65%
same,Activity,[5],88%
same,Stability,[6],Stable
same,Activity,[7],67%
same,GI50,U-251,32 µM
same,Activity,[8],13%
same,GI50,[9],19 µM
same,Activity,[10],80%
same,Activity,[11],53%
same,Activity,[12],45%
same,Activity,[13],60%
same,GI50,[14],22 µM
same,Activity,[15],118%
same,GI50,[16],20 µM
same,Activity,[17],100%
same,Activity,[18],68%
same,Activity,[19],61%
same,"degraded at 8 h, 120 ug/ml",[20],2.42%
same,Stability,[21],Stable
same,Activity,[22],88%
same,solubility thermodynamic,[23],10.2 mg/mL
same,logP,[24],0.73
same,Activity,[25],58%
same,Activity,[26],93%
same,Stability,[27],Stable
same,Activity,[28],27%
same,GI50,[29],30 µM
same,Activity,[30],46%
same,Activity,[31],84%
